For assay [1], the system named is myosin ATPase, Rabbit Psoas myofibrils. Put plainly: Myofibril ATPase assay, rabbit psoas (skeletal) myofibrils. The class given is biochemical. As to conditions: Rabbit Psoas Prep pCa 25 GEOM_MEAN; for Rabbit Psoas EC25 (Y75 value): concentration required to reduce myosin ATP-ase activity by 25%; for Rabbit Psoas Y125 value (marked #): concentration required to increase myosin ATP-ase activity by 25%.

Assay [2] deals with myosin ATPase, Porcine Atria myofibrils. The assay can be described thus: Myofibril ATPase assay, porcine atria myofibrils. The class given is biochemical. The settings on record: Porcine Atria Prep pCa 25 GEOM_MEAN; for Porcine Atria EC25 (Y75 value): concentration required to reduce myosin ATP-ase activity by 25%.
In assay [3] the target is T1, myosin ATPase, Porcine Ventricle myofibrils (Sus scrofa, UniProt P79293).
T1 construct: Myofibrils from porcine cardiac muscle was isolated from the left ventricle of Yucatan minipigs; tissue Exemplar Genetics; host or cells: left ventricle of Yucatan minipigs, myofibrils
T1 sequence (P79293 whole entry): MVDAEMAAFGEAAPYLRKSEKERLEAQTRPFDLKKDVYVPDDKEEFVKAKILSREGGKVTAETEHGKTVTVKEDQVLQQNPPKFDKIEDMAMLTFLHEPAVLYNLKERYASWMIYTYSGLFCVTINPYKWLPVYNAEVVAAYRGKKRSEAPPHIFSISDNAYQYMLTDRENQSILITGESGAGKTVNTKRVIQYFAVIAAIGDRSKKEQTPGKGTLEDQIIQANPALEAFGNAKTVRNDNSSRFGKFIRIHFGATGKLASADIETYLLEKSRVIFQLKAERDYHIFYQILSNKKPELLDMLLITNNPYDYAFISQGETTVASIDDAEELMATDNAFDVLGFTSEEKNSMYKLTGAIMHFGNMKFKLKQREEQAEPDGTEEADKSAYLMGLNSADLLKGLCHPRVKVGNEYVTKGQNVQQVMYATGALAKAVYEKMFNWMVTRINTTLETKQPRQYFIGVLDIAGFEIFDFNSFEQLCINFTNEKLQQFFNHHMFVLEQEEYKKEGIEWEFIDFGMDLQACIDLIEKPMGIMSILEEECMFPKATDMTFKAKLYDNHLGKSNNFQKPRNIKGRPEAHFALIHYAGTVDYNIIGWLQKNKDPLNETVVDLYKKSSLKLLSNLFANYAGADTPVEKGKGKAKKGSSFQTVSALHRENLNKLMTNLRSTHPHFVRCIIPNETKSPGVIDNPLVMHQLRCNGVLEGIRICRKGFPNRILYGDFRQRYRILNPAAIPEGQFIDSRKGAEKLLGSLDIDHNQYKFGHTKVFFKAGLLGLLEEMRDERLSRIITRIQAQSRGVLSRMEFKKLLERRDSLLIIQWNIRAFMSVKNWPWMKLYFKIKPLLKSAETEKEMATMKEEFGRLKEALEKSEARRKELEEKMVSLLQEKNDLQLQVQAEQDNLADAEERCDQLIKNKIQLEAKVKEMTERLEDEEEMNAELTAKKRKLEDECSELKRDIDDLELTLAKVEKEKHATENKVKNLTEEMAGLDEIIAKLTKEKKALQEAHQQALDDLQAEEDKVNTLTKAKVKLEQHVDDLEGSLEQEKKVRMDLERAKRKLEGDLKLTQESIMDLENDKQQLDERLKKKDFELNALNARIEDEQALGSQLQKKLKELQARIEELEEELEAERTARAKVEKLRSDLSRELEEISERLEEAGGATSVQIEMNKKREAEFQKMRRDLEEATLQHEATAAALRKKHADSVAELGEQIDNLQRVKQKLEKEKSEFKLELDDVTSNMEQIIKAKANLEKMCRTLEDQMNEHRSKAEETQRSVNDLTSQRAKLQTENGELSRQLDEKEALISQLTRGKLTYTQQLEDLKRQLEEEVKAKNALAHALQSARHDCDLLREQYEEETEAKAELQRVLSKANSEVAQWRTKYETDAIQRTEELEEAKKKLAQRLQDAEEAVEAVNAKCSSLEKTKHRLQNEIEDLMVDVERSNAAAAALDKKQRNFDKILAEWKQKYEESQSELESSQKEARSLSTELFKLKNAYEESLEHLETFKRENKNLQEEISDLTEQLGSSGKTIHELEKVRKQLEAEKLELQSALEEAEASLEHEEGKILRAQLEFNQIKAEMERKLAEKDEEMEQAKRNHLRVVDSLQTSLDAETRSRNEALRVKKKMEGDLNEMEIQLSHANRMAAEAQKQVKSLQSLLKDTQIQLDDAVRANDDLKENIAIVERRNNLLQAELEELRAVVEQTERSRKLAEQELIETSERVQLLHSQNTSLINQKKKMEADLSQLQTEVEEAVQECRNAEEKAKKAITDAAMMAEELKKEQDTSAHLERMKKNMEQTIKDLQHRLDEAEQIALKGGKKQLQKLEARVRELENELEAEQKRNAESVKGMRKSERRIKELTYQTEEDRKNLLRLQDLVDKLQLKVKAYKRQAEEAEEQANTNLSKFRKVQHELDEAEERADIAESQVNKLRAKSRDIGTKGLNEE
Put plainly: Myofibril ATPase assay, porcine ventricle myofibrils. The class given is biochemical, porcine (Yucatan minipigs). As to conditions: concentration required to reduce myosin ATP-ase activity by 25%; Porcine Ventricle Prep pCa 25 GEOM_MEAN. In outline:
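Myofibrils from Yucatan minipig left ventricle; ADP production coupled via PK-LDH to NADH loss, read kinetically at 340 nm every 1.5–2 min for 75 min in PIPES/MgCl2 pH 7.0 buffer. Slopes normalized to vehicle and fit to 4-parameter logistic; values are concentrations giving 75% (inhibition) or 125% (activation) of vehicle activity.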

`C[C@H](NC(=O)Cn1c(=O)[nH]c2ccnc(O)c2c1=O)c1ccc(F)cc1F` [Compound 59, (S)-N-(1-(2,4-difluorophenyl)ethyl)-2-(5-hydroxy-2,4-dioxo-1,4-dihydropyrido[4,3-d]pyrimidin-3(2H)-yl)acetamide]: the “Rabbit Psoas EC25 (Y75 value)” value in assay [1] worked out at 100 µM. Further, in assay [2], the “Porcine Atria EC25 (Y75 value)” value is 100 µM. Also, in assay [3], the “Porcine Ventricle EC25 (Y75 value)” value was found to be 100 µM.
Consider `C[C@H](NC(=O)Cn1c(=O)[nH]c2ccc(F)c(F)c2c1=O)c1ncc(C#N)cc1F` (single isomer, unassigned) [Compound 22], for which the “Rabbit Psoas EC25 (Y75 value)” value in assay [1] amounted to 0.036 µM. Further, the “Porcine Atria EC25 (Y75 value)” value in assay [2] was 0.083 µM. In addition, in assay [3], the “Porcine Ventricle EC25 (Y75 value)” value came to 0.205 µM.
The like results for `C[C@@H](NC(=O)Cn1c(=O)[nH]c2ccc(F)c(F)c2c1=O)c1ccc(C#N)cn1` (single isomer, unassigned) [Compound 17] were, in that order, 9.016 µM, 0.427 µM and 10.16 µM.
The like results for `C[C@@H](NC(=O)Cn1c(=O)[nH]c2ccc(F)c(F)c2c1=O)c1ncc(C#N)cc1F` (single isomer, unassigned) [Compound 21] were, in that order, 1.66 µM, 1.799 µM and 0.615 µM.
For `O=C(Cn1c(=O)[nH]c2ccccc2c1=O)NC(c1ccc(Cl)cc1)c1cccs1` (stereo not drawn) [Compound 515, N-((4-chlorophenyl)(thiophen-2-yl)methyl)-2-(2,4-dioxo-1,4-dihydroquinazolin-3(2H)-yl)acetamide], the “Rabbit Psoas EC25 (Y75 value)” value in assay [1] amounted to 100 µM. Moreover, in assay [2], the “Porcine Atria EC25 (Y75 value)” value worked out at 100 µM. The “Porcine Ventricle EC25 (Y75 value)” value in assay [3] was found to be 100 µM.
Take `CC(C)C[C@@H](C(=O)N[C@@H](C)c1ncc(F)cc1F)n1c(=O)[nH]c2ccccc2c1=O` (single isomer, unassigned) [Compound 27]: the “Rabbit Psoas EC25 (Y75 value)” value in assay [1] came to 100 µM. For the same compound, in assay [2], the “Porcine Atria EC25 (Y75 value)” value amounted to 100 µM. Further, the “Porcine Ventricle EC25 (Y75 value)” value in assay [3] was 100 µM.
Consider `C[C@H](NC(=O)C(Cc1ccccc1)n1c(=O)[nH]c2ccccc2c1=O)c1ccc(F)cc1F` (single isomer, unassigned) [Compound 504], for which, in assay [1], the “Rabbit Psoas Y125 value (marked #)” value is recorded as 3.28^#^ μM. Further, the “Porcine Atria EC25 (Y75 value)” value in assay [2] was found to be 20.67 µM. For the same compound, in assay [3], the “Porcine Ventricle EC25 (Y75 value)” value came to 43.467 µM.
Consider `Cc1c(F)ccc2[nH]c(=O)n(CC(=O)N[C@@H](C)c3ccc(C#N)cn3)c(=O)c12` (single isomer, unassigned) [Compound 3010], for which the “Rabbit Psoas EC25 (Y75 value)” value in assay [1] is 1.59 µM. For the same compound, the “Porcine Atria EC25 (Y75 value)” value in assay [2] was 1.97 µM. For the same compound, in assay [3], the “Porcine Ventricle EC25 (Y75 value)” value is 1.90 µM.
The like results for `Cc1ccc2[nH]c(=O)n(CC(=O)N[C@@H](C)c3ccc(F)cc3F)c(=O)c2c1` [Compound 51, (S)-N-(1-(2,4-difluorophenyl)ethyl)-2-(6-methyl-2,4-dioxo-1,4-dihydroquinazolin-3(2H)-yl)acetamide] were, in that order, 0.984 µM, 0.2427 µM and 13.83 µM.
Taken in the same sequence, the figures for `C[C@H](NC(=O)[C@H](C)n1c(=O)[nH]c2cccc(O)c2c1=O)c1ccc(F)cc1F` (single isomer, unassigned) [Compound 35] were 0.086 µM, 0.0835 µM and 1.64 µM.
For the compound `CC(C)CC(C(=O)N[C@@H](C)c1ccc(F)cc1F)n1c(=O)[nH]c2ccccc2c1=O` (single isomer, unassigned) [Compound 512], the “Rabbit Psoas Y125 value (marked #)” value in assay [1] is 23.575^#^ μM. In assay [2] (concentration required to increase myosin ATP-ase activity by 25%), the “Porcine Atria Y125 value (marked #)” value is 30.14^# μM. The “Porcine Ventricle EC25 (Y75 value)” value in assay [3] was determined as 100 µM.
As for `C[C@@H](NC(=O)Cn1c(=O)[nH]c2cccc(F)c2c1=O)c1ncc(C#N)cc1F` (single isomer, unassigned) [Compound 207], the “Rabbit Psoas EC25 (Y75 value)” value in assay [1] stood at 4.593 µM. For the same compound, in assay [2], the “Porcine Atria EC25 (Y75 value)” value stood at 100 µM. Moreover, the “Porcine Ventricle EC25 (Y75 value)” value in assay [3] is 100 µM.
`COc1cccc2[nH]c(=O)n(CC(=O)N[C@@H](C)c3ccc(F)cc3F)c(=O)c12` [Compound 69, (S)-N-(1-(2,4-difluorophenyl)ethyl)-2-(5-methoxy-2,4-dioxo-1,4-dihydroquinazolin-3(2H)-yl)acetamide]: in assay [1], the “Rabbit Psoas EC25 (Y75 value)” value came out at 1.147 µM. In assay [2], the “Porcine Atria EC25 (Y75 value)” value is 21.1 µM. Moreover, the “Porcine Ventricle EC25 (Y75 value)” value in assay [3] worked out at 100 µM.
Taken in the same sequence, the figures for `C[C@H](NC(=O)C(CO)n1c(=O)[nH]c2ccccc2c1=O)c1ccc(F)cc1F` (single isomer, unassigned) [Compound 511] were 35.849 µM, 2.118 µM and 100 µM.
Taken in the same sequence, the figures for `C[C@H](NC(=O)Cn1c(=O)[nH]c2ccccc2c1=O)c1cc(C(F)(F)F)cc(C(F)(F)F)c1` (single isomer, unassigned) [Compound 517] were 100 µM, 100 µM and 100 µM.
`C[C@@H](NC(=O)Cn1c(=O)[nH]c2ccc(C#N)cc2c1=O)c1ncc(C#N)cc1F` (single isomer, unassigned) [Compound 15]: in assay [1], the “Rabbit Psoas EC25 (Y75 value)” value stood at 100 µM. The “Porcine Atria EC25 (Y75 value)” value in assay [2] was found to be 4.31 µM. Further, the “Porcine Ventricle EC25 (Y75 value)” value in assay [3] is 100 µM.
As for `C[C@@H](NC(=O)Cn1c(=O)[nH]c2ccc(F)cc2c1=O)c1cnc(C#N)nc1` (single isomer, unassigned) [Compound 209], the “Rabbit Psoas EC25 (Y75 value)” value in assay [1] stood at 39.51 µM. Also, in assay [2], the “Porcine Atria EC25 (Y75 value)” value was determined as 100 µM. Besides, in assay [3], the “Porcine Ventricle EC25 (Y75 value)” value amounted to 100 µM.
As for `C[C@H](NC(=O)Cn1c(=O)[nH]c2ccc(F)cc2c1=O)c1cnc(C#N)nc1` (single isomer, unassigned) [Compound 210], in assay [1], the “Rabbit Psoas EC25 (Y75 value)” value is 0.174 µM. Moreover, the “Porcine Atria EC25 (Y75 value)” value in assay [2] came to 0.118 µM. Besides, the “Porcine Ventricle EC25 (Y75 value)” value in assay [3] amounted to 0.559 µM.
Take `C[C@H](NC(=O)Cn1c(=O)[nH]c2ncccc2c1=O)c1ccc(F)cc1F` [Compound 302, (S)-N-(1-(2,4-difluorophenyl)ethyl)-2-(2,4-dioxo-1,4-dihydropyrido[2,3-d]pyrimidin-3(2H)-yl)acetamide]: the “Rabbit Psoas EC25 (Y75 value)” value in assay [1] amounted to 100 µM. The “Porcine Atria EC25 (Y75 value)” value in assay [2] was 100 µM. The “Porcine Ventricle EC25 (Y75 value)” value in assay [3] was found to be 100 µM.
In the case of `Cc1cc(C#N)cnc1[C@H](C)NC(=O)Cn1c(=O)[nH]c2ccc(F)c(F)c2c1=O` (single isomer, unassigned) [Compound 14], the “Rabbit Psoas EC25 (Y75 value)” value in assay [1] was 21.27 µM. In addition, the “Porcine Atria EC25 (Y75 value)” value in assay [2] worked out at 5.931 µM. Further, the “Porcine Ventricle EC25 (Y75 value)” value in assay [3] was 23.76 µM.
The like results for `CC(NC(=O)Cn1c(=O)[nH]c2ccccc2c1=O)c1cccs1` (stereo not drawn) [Compound 606, 2-(2,4-dioxo-1,4-dihydroquinazolin-3(2H)-yl)-N-(1-(thiophen-2-yl)ethyl)acetamide] were, in that order, 100 µM, 100 µM and 100 µM.

The values are drawn from US12559464B2, “Quinazolinone dione compounds and uses thereof” (Edgewise Therapeutics, Inc., priority 2023, dated 2026).
